Laboratory results as given in patent publication US20250276959A1, “SOLID STATE FORMS OF ZAVEGEPANT HYDROCHLORIDE AND PROCESS FOR PREPARATION THEREOF” (TEVA CZECH INDUSTRIES S.R.O., priority 2022, published 2025).

Assay: Storage stability of the solid state form
Assay type: physicochemical
Description: Crystalline Form C2 of Zavegepant hydrochloride may have one or more advantageous properties, as discussed herein above. For example, Form C2 is stable for a period of at least for 6 months at temperature of about 25° C. and a relative humidity (“RH”) of 60% RH, and at a temperature of about 40° C. and 75% RH.

Cc1cc(C[C@@H](NC(=O)N2CCC(c3cc4ccccc4[nH]c3=O)CC2)C(=O)N2CCN(C3CCN(C)CC3)CC2)cc2cn[nH]c12 [Form C2, (R)N-(3-(7-methyl-1H-indazol-5-yl)-1-(4-(1-methylpiperidin-4-yl)piperazin-1-yl)-1-oxopropan-2-yl)-4-(2-oxo-1,2-dihydroquinolin-3-yl)piperidine-1-carboxamide]
period for which the form is stable (temperature of about 25° C., 60% RH): ≥ 6 months
period for which the form is stable (temperature of about 40° C., 75% RH): ≥ 6 months
